Assay results as given in patent US10323027B2, “2,3-dihydro-4H-1,3-benzoxazin-4-one derivatives as modulators of cholinergic muscarinic M1 receptor” (Takeda Pharmaceutical Company Limited, priority 2015, dated 2019).

Molecular target: T1, human M1 receptor (hCHRM1) (Homo sapiens, UniProt P11229)
T1 construct: expressed in transfected cells
T1 sequence (P11229 1-460): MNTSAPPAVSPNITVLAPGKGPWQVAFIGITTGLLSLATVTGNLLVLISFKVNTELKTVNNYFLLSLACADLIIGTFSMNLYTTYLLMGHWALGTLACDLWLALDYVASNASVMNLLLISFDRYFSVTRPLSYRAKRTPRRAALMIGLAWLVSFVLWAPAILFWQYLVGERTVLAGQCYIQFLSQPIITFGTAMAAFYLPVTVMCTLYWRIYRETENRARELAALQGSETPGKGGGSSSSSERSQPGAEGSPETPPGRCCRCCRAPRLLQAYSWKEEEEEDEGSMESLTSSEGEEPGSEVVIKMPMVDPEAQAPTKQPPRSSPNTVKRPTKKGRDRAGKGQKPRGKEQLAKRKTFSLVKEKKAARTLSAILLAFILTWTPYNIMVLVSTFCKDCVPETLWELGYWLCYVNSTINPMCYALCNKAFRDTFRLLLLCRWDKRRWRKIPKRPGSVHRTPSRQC
Assay: Measurement of M1 receptor positive allosteric modulator (M1PAM) activity, Ca2+ fluorescence by FLIPRtetra (Experimental Example 1)
Type: cell-based
Settings: for activity (%) at 10 μM: 10 μM test compound, 100% = acetylcholine 1 μM, 0% = DMSO; for EC50: inflection point of concentration-dependent curve, in presence of acetylcholine at EC20 (0.8-1.0 nM), CHO-K1 cells expressing hCHRM1, read-out: IP value
Experimental: Measurement of M1 Receptor Positive Allosteric Modulator (M1PAM) Activity
The activity of a test compound in the presence of acetylcholine at EC20 concentration (final concentration 0.8-1.0 nM), which affords an action corresponding to about 20% of the maximum activity, was measured as PAM activity. The method is as follows. CHO-K1 cells stably expressing a human M1 receptor (hCHRM1) were plated on a 384-well black clear bottom plate (BD Falcon) at 5,000 cells/well, and cultured in an incubator at 37° C., 5% CO2 for 1 day. The medium in the cell plate was removed, and a dye solution (prepared by adding Recording medium (DOJINDO LABORATORIES) to a final concentration of 1×concentration, Fluo-4 AM (DOJINDO LABORATORIES) to a final concentration of 2.5 μg/mL, Pluronic F127 (DOJINDO LABORATORIES) to a final concentration of 0.08%, and probenecid (DOJINDO LABORATORIES) to a final concentration of 1.25 mM to assay buffer (HBSS (Invitrogen), 20 mM HEPES (Invitrogen), 0.1% BSA (Wako Pure Chemical Industries, Ltd.))) was added at 30 μL/well. The cells were left standing in the incubator at 37° C., 5% CO2 for 30 min, and further left standing at room temperature for 30 min. A test compound prepared by diluting with assay buffer containing 3.2-4.0 nM acetylcholine was added at 10 μL/well, and the fluorescence was measured by FLIPRtetra (Molecular Devices) for 1 min every 1 second. With the definition that the amount of change in the fluorescence on addition of acetylcholine (final concentration 1 μM) is 100% and that on addition of DMSO instead of a test compound is 0%, the activity (%) of the test compound was calculated, and the inflection point in the concentration-dependent curve of the test compound was calculated as IP values.

SMILES	activity (%) at 10 μM [%]	EC50 [nM]
Cc1cc2c(cc1Cc1ccc(-n3cccn3)cc1)C(=O)N([C@H]1CCC[C@@H]1O)CO2 [Example 35, 3-((1S,2S)-2-hydroxycyclopentyl)-7-methyl-6-(4-(1H-pyrazol-1-yl)benzyl)-2,3-dihydro-4H-1,3-benzoxazin-4-one]	109	5.8
Cc1c(Cc2ccc(C#N)cc2)cc2c(c1F)OCN([C@H]1CCC[C@@H]1O)C2=O [Example 12, 4-((8-fluoro-3-((1S,2S)-2-hydroxycyclopentyl)-7-methyl-4-oxo-3,4-dihydro-2H-1,3-benzoxazin-6-yl)methyl)benzonitrile]	89	15
Cc1c(Cc2ccc(C#N)cc2)cc2c(c1C)OCN([C@H]1CCC[C@@H]1O)C2=O [Example 44, 4-((3-((1S,2S)-2-hydroxycyclopentyl)-7,8-dimethyl-4-oxo-3,4-dihydro-2H-1,3-benzoxazin-6-yl)methyl)benzonitrile]	99	3.9
Cn1cc(-c2ccc(Cc3ccc4c(c3)C(=O)N(c3ccccc3F)CO4)cn2)cn1 [Example 88, 3-(2-fluorophenyl)-6-((6-(1-methyl-1H-pyrazol-4-yl)pyridin-3-yl)methyl)-2,3-dihydro-4H-1,3-benzoxazin-4-one]	115	230
O=C1c2cc(CN3CCSCC3)c3ccccc3c2OCN1[C@H]1CCC[C@@H]1O [Example 57, 3-((1S,2S)-2-hydroxycyclopentyl)-6-(thiomorpholin-4-ylmethyl)-2,3-dihydro-4H-naphtho[2,1-e][1,3]oxazin-4-one]	106	16
Cc1c(Cc2ccc(-c3cnn(C)c3)nc2)cc2c(c1Cl)OCN(CC1CCCO1)C2=O (stereo not shown) [Example 45, 8-chloro-7-methyl-6-((6-(1-methyl-1H-pyrazol-4-yl)pyridin-3-yl)methyl)-3-(tetrahydrofuran-2-ylmethyl)-2,3-dihydro-4H-1,3-benzoxazin-4-one]	92	4.8
Cc1ccc(Cc2cc3c(c4ccccc24)OCN(CC2CCCO2)C3=O)cn1 (stereo not shown) [Example 58, 6-((6-methylpyridin-3-yl)methyl)-3-(tetrahydrofuran-2-ylmethyl)-2,3-dihydro-4H-naphtho[2,1-e][1,3]oxazin-4-one]	94	16
Cc1c(Cc2ccc(-n3cccn3)cc2)cc2c(c1C)OCN([C@H]1COCC[C@@H]1O)C2=O [Example 23, 3-[(3S,4S)-4-hydroxytetrahydro-2H-pyran-3-yl]-7,8-dimethyl-6-[4-(1H-pyrazol-1-yl)benzyl]-2,3-dihydro-4H-1,3-benzoxazin-4-one]	114	2
Cc1cc2c(cc1Cc1ccc(-n3cccn3)cc1)C(=O)N([C@H]1COCC[C@@H]1O)CO2 [Example 50, 1,5-anhydro-2,4-dideoxy-2-(7-methyl-4-oxo-6-(4-(1H-pyrazol-1-yl)benzyl)-2H-1,3-benzoxazin-3(4H)-yl)-L-threo-pentitol]	120	8.6
Cc1c(Cc2ccc(Cl)nc2)cc2c(c1F)OCN([C@H]1COCC[C@@H]1O)C2=O [Example 19, 1,5-anhydro-2-(6-((6-chloropyridin-3-yl)methyl)-8-fluoro-7-methyl-4-oxo-2H-1,3-benzoxazin-3(4H)-yl)-2,4-dideoxy-L-threo-pentitol]	105	45
COc1ccc(Cc2cc3c(c(C)c2C)OCN([C@H]2COCC[C@@H]2O)C3=O)cc1 (relative stereo) [Example 59, 1,5-anhydro-2,4-dideoxy-2-(6-(4-methoxybenzyl)-7,8-dimethyl-4-oxo-2H-1,3-benzoxazin-3(4H)-yl)-threo-pentitol]	99	21
Cc1ccc(Cc2cc3c(c(Cl)c2C)OCN([C@H]2CCC[C@@H]2O)C3=O)cn1 [Example 25, 8-chloro-3-((1S,2S)-2-hydroxycyclopentyl)-7-methyl-6-((6-methylpyridin-3-yl)methyl)-2,3-dihydro-4H-1,3-benzoxazin-4-one]	101	4.2
Cc1cc2c(cc1Cc1ccc(C#N)cc1)C(=O)N([C@H]1CCC[C@@H]1O)CO2 [Example 67, 4-((3-((1S,2S)-2-hydroxycyclopentyl)-7-methyl-4-oxo-3,4-dihydro-2H-1,3-benzoxazin-6-yl)methyl)benzonitrile]	98	46
O=C1c2cc(CN3CCC(F)(F)C3)c3ccccc3c2OCN1[C@H]1CCC[C@@H]1O [Example 69, 6-((3,3-difluoropyrrolidin-1-yl)methyl)-3-((1S,2S)-2-hydroxycyclopentyl)-2,3-dihydro-4H-naphtho[2,1-e][1,3]oxazin-4-one]	93	51
Cc1cc2c(cc1Cc1ccc(Cl)nc1)C(=O)N([C@H]1CCC[C@@H]1O)CO2 [Example 34, 6-((6-chloropyridin-3-yl)methyl)-3-((1S,2S)-2-hydroxycyclopentyl)-7-methyl-2,3-dihydro-4H-1,3-benzoxazin-4-one]	96	53
Cc1c(Cc2ccc(Cl)nc2)cc2c(c1F)OCN([C@H]1CCCC[C@@H]1O)C2=O [Example 54, 6-((6-chloropyridin-3-yl)methyl)-8-fluoro-3-((1S,2S)-2-hydroxycyclohexyl)-7-methyl-2,3-dihydro-4H-1,3-benzoxazin-4-one]	116	11
Cc1c(Cc2ccc(Cl)nc2)cc2c(c1F)OCN([C@H]1CCC[C@@H]1O)C2=O [Example 16, 6-((6-chloropyridin-3-yl)methyl)-8-fluoro-3-((1S,2S)-2-hydroxycyclopentyl)-7-methyl-2,3-dihydro-4H-1,3-benzoxazin-4-one]	102	20
Cc1c(Cc2ccc(Cl)nc2)cc2c(c1C)OCN([C@H]1CCC[C@@H]1O)C2=O [Example 8, 6-((6-chloropyridin-3-yl)methyl)-3-((1S,2S)-2-hydroxycyclopentyl)-7,8-dimethyl-2,3-dihydro-4H-1,3-benzoxazin-4-one]	105	9.6
Cc1cc2c(cc1Cc1ccc(-c3cn(C)nn3)cc1)C(=O)N(CC1CCCO1)CO2 (stereo not shown) [Example 61, 7-methyl-6-(4-(1-methyl-1H-1,2,3-triazol-4-yl)benzyl)-3-(tetrahydrofuran-2-ylmethyl)-2,3-dihydro-4H-1,3-benzoxazin-4-one]	92	23
Cc1ccc(Cc2cc3c(c(Cl)c2C)OCN(CC2CCCO2)C3=O)cn1 (stereo not shown) [Example 84, 8-chloro-7-methyl-6-((6-methylpyridin-3-yl)methyl)-3-(tetrahydrofuran-2-ylmethyl)-2,3-dihydro-4H-1,3-benzoxazin-4-one]	93	96
Cc1cc2c(cc1Cc1ccc(-c3cn(C)nc3C)nc1)C(=O)N(CC1CCCO1)CO2 (stereo not shown) [Example 82, 6-((6-(1,3-dimethyl-1H-pyrazol-4-yl)pyridin-3-yl)methyl)-7-methyl-3-(tetrahydrofuran-2-ylmethyl)-2,3-dihydro-4H-1,3-benzoxazin-4-one]	93	90
COc1c(Cc2ccc(-n3cccn3)nc2)cc2c(c1F)OCN([C@H]1CCC[C@@H]1O)C2=O (single isomer, unassigned) [Example 55, 8-fluoro-3-(trans-2-hydroxycyclopentyl)-7-methoxy-6-((6-(1H-pyrazol-1-yl)pyridin-3-yl)methyl)-2,3-dihydro-4H-1,3-benzoxazin-4-one (optical isomer)]	98	14
O=C1c2cc(CN3CCCC(F)(F)C3)c3ccccc3c2OCN1[C@H]1CCC[C@@H]1O [Example 72, 6-((3,3-difluoropiperidin-yl)methyl)-3-((1S,2S)-2-hydroxycyclopentyl)-2,3-dihydro-4H-naphtho[2,1-e][1,3]oxazin-4-one]	100	57
